From US8524465B2, “Agonists of bitter taste receptors and uses thereof” (Deutsches Institut fuer Ernaehrungsforschung …, priority 2007, dated 2013)

Legend:
TAS2R14 = target: T1, TAS2R14 (Homo sapiens, UniProt Q9NYV8); experiment: FLIPR calcium imaging, HEK-293T Gα16gust44 cells expressing TAS2R14; type: cell-based; conditions: for molar range at which TAS2R14 responded to the bitter substance: calcium response, transfected HEK-293T Gα16gust44 cells, FLIPR
T1 construct: expressed in transfected cells; host or cells: HEK-293T cells stably expressing the chimeric G-protein subunit Gα16gust44
T1 sequence (Q9NYV8 1-317): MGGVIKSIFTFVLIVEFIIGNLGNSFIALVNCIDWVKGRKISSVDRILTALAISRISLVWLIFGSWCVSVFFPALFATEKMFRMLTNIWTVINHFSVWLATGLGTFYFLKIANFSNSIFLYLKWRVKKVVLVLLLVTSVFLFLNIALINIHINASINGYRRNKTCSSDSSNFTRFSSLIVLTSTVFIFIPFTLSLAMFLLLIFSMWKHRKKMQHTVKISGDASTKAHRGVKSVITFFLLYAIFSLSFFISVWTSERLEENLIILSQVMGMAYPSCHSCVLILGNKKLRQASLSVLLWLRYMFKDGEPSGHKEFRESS
Experimental: (§1) Tastants (Sigma-Aldrich, Taufkirchen, Germany) were dissolved and administered in the following (in mM): 130 NaCl, 5 KCl, 10 HEPES, 2 CaCl2, and 10 mM glucose, pH7.4. Data were collected from 1-2 independent experiments performed at least in triplicate and processed with SigmaPlot (SPSS, Chicago, Ill.). For dose-response curve calculation, the peak fluorescence responses after compound addition were corrected for and normalized to background fluorescence (ΔF/F=(F−F0)/F0), and baseline noise was subtracted.
(§2) All 25 human bitter taste receptors were challenged with 100 μM artemorin (FIG. 1) in a FLIPR calcium imaging experiment.

TAS2R10 = target: T2, TAS2R10 (Homo sapiens, UniProt Q9NYW0, T156M); experiment: FLIPR calcium imaging, HEK-293T Gα16gust44 cells expressing TAS2R10; type: cell-based
T2 construct: expressed in transfected cells; host or cells: HEK-293T cells stably expressing the chimeric G-protein subunit Gα16gust44
T2 sequence (Q9NYW0 1-307 T156M): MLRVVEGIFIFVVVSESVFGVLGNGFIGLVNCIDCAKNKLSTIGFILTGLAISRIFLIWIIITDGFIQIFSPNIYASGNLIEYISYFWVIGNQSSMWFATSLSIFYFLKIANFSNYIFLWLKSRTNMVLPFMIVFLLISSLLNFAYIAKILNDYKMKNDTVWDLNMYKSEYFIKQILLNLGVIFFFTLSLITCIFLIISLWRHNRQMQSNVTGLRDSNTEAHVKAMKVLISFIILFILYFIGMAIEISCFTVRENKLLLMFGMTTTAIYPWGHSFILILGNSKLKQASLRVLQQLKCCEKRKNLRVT
Experimental: as §1, §2

TAS2R4 = target: T3, TAS2R4 (Homo sapiens, UniProt Q9NYW5); experiment: FLIPR calcium imaging, HEK-293T Gα16gust44 cells expressing TAS2R4; type: cell-based
T3 construct: expressed in transfected cells; host or cells: HEK-293T cells stably expressing the chimeric G-protein subunit Gα16gust44
T3 sequence (Q9NYW5 1-299): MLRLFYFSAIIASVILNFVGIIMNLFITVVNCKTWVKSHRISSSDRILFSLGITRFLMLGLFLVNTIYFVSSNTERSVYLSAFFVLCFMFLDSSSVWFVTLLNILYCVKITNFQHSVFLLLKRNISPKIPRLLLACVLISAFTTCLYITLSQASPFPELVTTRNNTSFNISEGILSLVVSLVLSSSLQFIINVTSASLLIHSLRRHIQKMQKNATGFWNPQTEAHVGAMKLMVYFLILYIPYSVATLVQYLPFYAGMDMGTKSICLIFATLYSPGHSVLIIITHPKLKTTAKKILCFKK
Experimental: as §1, §2

mock-transfected cells = conditions: 1 mM PROP
Experimental: as §1, §2

[1] = challenged with 100 μM artemorin, FIG. 2

Structure (SMILES): C=C1C(=O)O[C@@H]2[C@H]3C(C)=CC[C@@]34O[C@@]4(C)CC[C@@H]12 [Arglabin]
- molar range at which TAS2R14 responded to the bitter substance (TAS2R14): 0.1 mM
- molar range at which TAS2R10 responded to the bitter substance (TAS2R10; calcium response, transfected HEK-293T Gα16gust44 cells, FLIPR): 0.1 mM

Structure (SMILES): CCNC(=S)NCC [N,N′-Diethylthiourea]
- molar range at which TAS2R14 responded to the bitter substance (TAS2R14): 10 mM

Structure (SMILES): C=C1CC[C@H]2C(=C)C(=O)O[C@@H]2/C=C(\C)CC[C@H]1O [artemorin]
- receptor response in FLIPR calcium imaging experiment (TAS2R4) (TAS2R4; [1]): responded to artemorin in a dose-dependent manner
- receptor response in FLIPR calcium imaging experiment (TAS2R14) (TAS2R14; [1]): responded to artemorin in a dose-dependent manner
- receptor response in FLIPR calcium imaging experiment (TAS2R10) (TAS2R10; [1]): responded to artemorin in a dose-dependent manner

Structure (SMILES): CCCc1cc(=O)[nH]c(=S)[nH]1 [propylthiouracil]
- calcium responses in TAS2R4-expressing cells (TAS2R4; result in words): very small (somewhat questionable) and no dose-dependency can be shown
- signals of mock-transfected cells (mock-transfected cells): elicits endogenous signals of mock-transfected cells
